Laboratory results reported in patent publication US11767295B2, “Isoindole derivative” (TIANJIN HEMAY PHARMACEUTICAL CO., LTD., priority 2018, dated 2023).

How the values were obtained:
Type in all cases: in vivo
[1] = test system: DNCB-induced atopic dermatitis in Balb/c mice; test: Efficacy evaluation test of DNCB-induced atopic dermatitis in Balb/c mice model (Biological Example 2); settings: BID × 10; for Inhibitory Rate of Ear Swelling / Weight Changes of Animals, Day 10 / Weight Changes of Animals, Day 17 / Weight Changes of Animals, Day 18 / Ear Swelling Degree / IgE Concentration / Inhibitory Rate of IgE Concentration: 1 mg/mouse on ear; for Inhibitory Rate of Ear Swelling / Ear Swelling Degree / IgE Concentration / Inhibitory Rate of IgE Concentration: 18th day; for Inhibitory Rate of Ear Swelling / Inhibitory Rate of IgE Concentration: vs model and blank control; for Weight Changes of Animals, Day 1 / Weight Changes of Animals, Day 10 / Weight Changes of Animals, Day 17 / Weight Changes of Animals, Day 18: Balb/c mice, Mean ± S.D.; for Weight Changes of Animals, Day 1: 1 mg/mouse (50 mg/mL, 20 μL) on ear; for Ear Swelling Degree: right minus left ear piece weight; for IgE Concentration / Inhibitory Rate of IgE Concentration: serum
Protocol: 70 healthy male SPF Balb/c mice, each of which the weight was 19-21 g, were randomly divided into 7 groups by body weight. There were 10 mice in each group.
Before the test, the hair around the right ear of the mouse was removed to reduce the interference in the drug adhesion to the hair.
The start of the test was recorded as Day 1. After the end of the 18th day of the test, blood was taken from each animal to detect the concentration of immunoglobulin (IgE) in the serum (in accordance with the kit instructions). Both ears of the animal were cut off. Ear pieces were cut by an 8 mm punch at the fixed position of the ears and weighed. Differences in the swelling degrees of two ears were calculated.
The IgE concentrations in the serum of different groups on the 18th day were analyzed and compared statistically with One-Way Anova in SPSS 17, respectively. The G test method was used to delete outliers. p<0.05 indicated there were statistical differences. Ear swelling degree (mg)=right ear weight (mg)−left ear weight (mg); Inhibitory rate of ear swelling degree (%)=1−(ear swelling degree of drug administration group−ear swelling degree of blank control group)/(ear swelling degree of model control group−ear swelling degree of blank control group)×100%; Inhibitory rate of IgE (%)=1−(IgE concentration in administration group−IgE concentration in blank control group)/(IgE concentration in model control group−IgE concentration in blank control group)×100%.

ICR mice = test: Acute toxicity test of single gavage in mice (Biological Example 9); settings: single gavage 2000 mg/Kg; for Death of animals: 3 male and 3 female, until the end of the test
Protocol: 30 healthy ICR mice of SPF grade were randomly divided into 5 groups according to the gender segment, in which 15 mice were male and 15 mice were female. There were 3 mice/gender/group. There were 6 mice in each group, in which 3 mice were male and 3 mice were female.
Single administration by gavage was carried out. The symptoms and responses of all the animals were observed after the administration and were recorded faithfully. The test was observed continuously for 15 days. The symptoms of the animals were recorded. After the test, the tissues and organs of all the animals were weighed, observed and recorded. The specimens were kept.
Body weight, appearance, breath, behavior, reflex and defecation.

[2] = test system: Phorbol ester (TPA)-induced ear swelling in mice; test: Inhibition of phorbol ester (TPA)-induced ear swelling in mice (Biological Example 6); settings: ICR mice, 5 hours after TPA modeling; for Ear Swelling Rate / Inhibitory Rate of Ear Swelling Degree: 2 mg/mouse on right ear; for Ear Swelling Rate: (right−left)/left ear weight; for Inhibitory Rate of Ear Swelling Degree: vs model and blank control; for Ear Swelling Degree: 50 mg/mL in acetone, 40 μL in 2 administrations (2 mg/mouse)
Protocol: (§1) 72 male ICR mice were selected and divided into 9 groups. There were 8 mice in each group.
(§2) Before the test, the animals were grouped and the hair around the right ear of the mice was removed.
(§3) 20 μL of respective drug was applied to the animals in each test group (a blank solvent was applied to the model control group). Modeling and induction were carried out after 1 h 10 min. Except for the blank group, 20 μL of TPA at a concentration of 125 μg/mL were applied to the right ears of the animals for induction. After induction for 10 minutes, 20 μL of respective drug were applied to the right ears of the animals in each test group (a blank solvent was applied to the model control group).
After modeling for 5 hours, ear pieces of both sides at the same location of animals in each group were taken with a punch and weighed to calculate the ear swelling degree, ear swelling rate and inhibitory rate.
The ear swelling degree and ear swelling rate after modeling and administration for 5 hours were analyzed and tested with One-Way ANOVA multiple-group test index in SPSS17.0. […] Ear swelling degree (mg)=right ear weight (mg)−left ear weight (mg); Ear swelling rate (%)=(right ear weight−left ear weight)/left ear weight×100%; Inhibitory rate of ear swelling degree (%)=1−(swelling degree of drug administration group−swelling degree of blank control group)/(swelling degree of model control group−swelling degree of blank control group)×100%.

[3] = test system: Phorbol ester (TPA)-induced ear swelling in mice; test: Inhibition of phorbol ester (TPA)-induced ear swelling in mice (Biological Example 5); settings: ICR mice, 5 hours after TPA modeling
Protocol: as §1, §2, §3
After modeling for 5 hours, ear pieces of both sides on the same location of animals in each group were taken with a punch and weighed to calculate the ear swelling degree, ear swelling rate and inhibitory rate.
The ear swelling degree and ear swelling rate after modeling and administration for 5 hours were analyzed and tested with One-Way ANOVA multiple-group test index in SPSS17.0. P<0.05 indicated there were statistical differences. Ear swelling degree (mg)=right ear weight (mg)−left ear weight (mg); Ear swelling rate (%)=(right ear weight−left ear weight)/left ear weight×100%; Inhibitory rate of ear swelling degree (%)=1−(ear swelling degree of drug administration group−ear swelling degree of blank control group)/(ear swelling degree of model control group−ear swelling degree of blank control group)×100%.

[4] = female ICR mice, end of the test
[5] = female ICR mice, observed 15 days
[6] = surviving male ICR mice, end of the experiment

SMILES	Inhibitory Rate of Ear Swelling [1] [%]	Weight Changes of Animals, Day 1 [1] [g]	Weight Changes of Animals, Day 10 [1] [g]	Weight Changes of Animals, Day 17 [1] [g]	Weight Changes of Animals, Day 18 [1] [g]	Ear Swelling Degree [1] [mg]	IgE Concentration [1] [ng/mL]	Inhibitory Rate of IgE Concentration [1] [%]	Ear Swelling Rate [2] [%]	Inhibitory Rate of Ear Swelling Degree [2] [%]	Ear Swelling Degree [2] [mg]	further results
CCOC(=O)C[C@@H](c1ccc(OC)c(OCC)c1)N1C(=O)c2cccc(NC(C)=O)c2C1=O [Example 52, ethyl (S)-3-(4-acetamido-1,3-dioxoisoindolin-2-yl)-3-(3-ethoxy-4-methoxyphenyl)propionate]	60.1	21.8 ± 0.5	22.6 ± 0.9	24.3 ± 5.6	24.2 ± 6.0	12.0 ± 5.4	4141.5 ± 2315.0	55.5	–	–	–	Death of animals (ICR mice; ICR mice): 1 male animal died in the second day of the test. It was; Gross anatomy, female animals (ICR mice; [4]): until the end of the test. No abnormalities of gross anatomy; Organ indexes, female animals (ICR mice; [4]): until the end of the test. No abnormalities of gross anatomy; Clinical observation, female animals (ICR mice; [5]): No obvious abnormalities in female animals were observed; Gross anatomy, male animals (ICR mice; [6]): observed until the end of the experiment. No abnormalities; Organ indexes, male animals (ICR mice; [6]): observed until the end of the experiment. No abnormalities
CCOc1cc(C(CC(=O)OC)N2C(=O)c3cccc(O)c3C2=O)ccc1OC (stereo not shown) [Example 32, methyl 3-(4-hydroxy-1,3-dioxoisoindolin-2-yl)-3-(3-ethoxy-4-methoxyphenyl)propionate]	–	–	–	–	–	–	–	–	93.3 ± 28.1	55.6	13.4 ± 4.0	–
CCCOc1cc(C(CC(=O)OC)N2C(=O)c3cccc(NC(C)=O)c3C2=O)ccc1OC (stereo not shown) [Example 29, methyl 3-(4-acetamido-1,3-dioxoisoindolin-2-yl)-3-(3-propoxy-4-methoxyphenyl)propionate]	–	–	–	–	–	–	–	–	46.8 ± 33.9	81.5	6.5 ± 4.6	–
CCOc1ccc(C(CC(=O)OC)N2C(=O)c3cccc(NC(C)=O)c3C2=O)cc1OCC (stereo not shown) [Example 4, methyl 3-(4-acetamido-1,3-dioxoisoindolin-2-yl)-3-(3,4-diethoxyphenyl)propionate]	–	–	–	–	–	–	–	–	–	–	–	Ear Swelling Rate ([3]; 2 mg/mouse on right ear, (right−left)/left ear weight): 34.3 ± 18.2 %; Inhibitory Rate of Ear Swelling Degree ([3]; 2 mg/mouse on right ear, vs model and blank control): 88.8%; Ear Swelling Degree ([3]; 50 mg/mL in acetone, 40 μL in 2 administrations (2 mg/mouse)): 4.8 ± 2.1 mg; Clinical observation, female animals (ICR mice; [5]): After administration, no abnormalities of female animals; Clinical observation, male animals (ICR mice; male ICR mice, observed 15 days): The male animals had reduced activity and recovered after
COC(=O)CC(c1ccc(OC)c(OC(C)C)c1)N1C(=O)c2cccc(NC(C)=O)c2C1=O (stereo not shown) [Example 46, methyl 3-(4-acetamido-1,3-dioxoisoindolin-2-yl)-3-(3-isopropoxy-4-methoxyphenyl)propionate]	36.2	21.6 ± 0.7	22.6 ± 0.6	23.0 ± 0.7	23.1 ± 0.7	18.6 ± 3.9	4429.8 ± 1713.9	51.7	44.9 ± 35.5	82.0	6.4 ± 5.3	–
COC(=O)CC(c1ccc(OC)c(OC2CCCC2)c1)N1C(=O)c2cccc(NC(C)=O)c2C1=O (stereo not shown) [Example 30, methyl 3-(4-acetamido-1,3-dioxoisoindolin-2-yl)-3-(3-cyclopentyloxy-4-methoxyphenyl)propionate]	–	–	–	–	–	–	–	–	85.0 ± 27.4	60.8	12.0 ± 3.5	–
CCOc1cc(C(CC(=O)OC)N2C(=O)c3cccc(NC(C)=O)c3C2=O)ccc1OC1CCCC1 (stereo not shown) [Example 20, methyl 3-(4-acetamido-1,3-dioxoisoindolin-2-yl)-3-(3-ethoxy-4-cyclopentyloxyphenyl)propionate]	–	–	–	–	–	–	–	–	63.9 ± 19.3	73.0	8.8 ± 2.8	–
COC(=O)C[C@@H](c1ccc(OC)c(OC(C)C)c1)N1C(=O)c2cccc(NC(C)=O)c2C1=O [Example 54, methyl (S)-3-(4-acetamido-1,3-dioxoisoindolin-2-yl)-3-(3-isopropoxy-4-methoxyphenyl)propionate]	43.1	21.6 ± 0.6	22.6 ± 0.8	23.3 ± 1.2	23.1 ± 1.2	16.7 ± 3.0	4873.7 ± 1356.2	45.9	–	–	–	Death of animals (ICR mice; ICR mice): activity. No death or abnormality of animals was observed; Clinical observation: appearance, breath, behavior, reflex and defecation (ICR mice; ICR mice, male and female, observed 15 days): The main symptom after administration was reduced
CCOc1cc(C(CC(=O)OC)N2C(=O)c3cccc(NC(C)=O)c3C2=O)ccc1OC(C)C (stereo not shown) [Example 18, methyl 3-(4-acetamido-1,3-dioxoisoindolin-2-yl)-3-(3-ethoxy-4-isopropoxyphenyl)propionate]	–	–	–	–	–	–	–	–	33.9 ± 14.0	88.1	4.8 ± 1.9	–
